The nature of assay [1]: Take-home erection results, VAS questionnaire question 1 (Example 5, Phase III). It counts as in vivo, human. The conditions noted are these: for Erection Results (Maximum) Percent Change from Baseline, LSMEAN: all sites; for Erection Results (Maximum) Percent Change from Baseline, MEAN: all doses, site #1, #2, #3, #4, listed as APO. The source says:
During the five-week, home-use phase, subjects were to attempt coitus at least once each week after taking a single APO tablet. After each attempt, the subject and their partner completed a Sexual Function questionnaire (See FIGS. 15 and 16) which was later evaluated and used for final statistical analysis.
For the third phase, subjects had recorded at baseline, their satisfaction,erection, number of attempts, and successful intercourse on a VAS scale (see Tables Xa-Xc, above). Evaluateable subjects first recorded a success rate, then completed VAS for erection results and satisfaction with intercourse following take-home treatment. The success rates, as shown in Tables XVa-XVb, below, were calculated for milligrams of APO as well as for micrograms per kilogram of the patient's body weight doses (males). There were four criteria for recording a success in the take-home phase. […] Several evaluations of the data were made including the male and female responses to treatments via questionnaires (see FIGS. 15 and 16).
Tables XVIIa--XVIId, below, show the statistical results of phase III with respect to Rigiscan™ results (a and b) and intercourse satisfaction (c and d) based on question 1 and question 3, respectively, from the completed questionnaires (see FIGS. 15 and 16). […] The maximum improvement from baseline were 56% in males and 59% in females. The mean improvement were 29% in males and 34% in females. […] The mean improvements were 34% in females and 45% in males.

A short description of assay [2]: Penile erectile response ([…] score) with erotic and neutral videos (Example 5). In kind it is in vivo, human. As to conditions: for Total RIGISCAN Score, Erotic 1: N = 31-36, ** significantly higher than placebo 1 and 2. On the procedure:
Each of the selected subjects' penile erectile response (measured with the […]™ ambulatory tumescence monitor) was evaluated using the scoring system as set out in Table IX, below.
The combining of the scores of A, B, C, and D from Table IX yields a total score for each subject. A total score of less than 16 for any individual subject indicates erectile dysfunction.
Patients not experiencing nausea or any other significant adverse effects within fifteen minutes post-dosing with APO or placebo viewed segments of standardized erotic videos to provide sexual stimulation. […] The duration of the testing session for each dose level lasted between 45 and 60 minutes.
This aim was accomplished during the first two phases of the study in which subjects were attached to the […]™ monitor. Subjects were initially treated with placebo, followed by APO 4, 6, and 8 mg. tablets with a placebo tablet randomly interspersed in the treatment.

Values joined by “and” are separate entries in the source; they are usually repeats but may differ in a detail not shown here. Equal entries are not always repeated. Structures can show the parent of a compound that is named as a salt.

`CN1CCc2cccc3c2[C@H]1Cc1ccc(O)c(O)c1-3` [apomorphine HCl]: the “Erection Results (Maximum) Percent Change from Baseline, LSMEAN” value in assay [1] (FEMALE, 4 mg) amounted to 33.57%; in assay [1] (FEMALE, 6 mg), 45.00%; in assay [1] (FEMALE, 8 mg), 59.00%; in assay [1] (MALE, 4 mg) it was 55.71%; in assay [1] (MALE, 6 mg) it was 42.80%; in assay [1] (MALE, 8 mg), 31.86%. In addition, the “Erection Results (Maximum) Percent Change from Baseline, MEAN” value in assay [1] (FEMALE) was 52.56% and 41.25% and 46.50% and 36.29%; in assay [1] (MALE) it was 52.22% and 57.00% and 36.22% and 33.00%. The results for the “erection rigidity, mean improvement” value in assay [1] (females) and in assay [1] (males) were 34% and 29%, respectively. The “erection rigidity, maximum improvement from baseline” value in assay [1] (females (best at 8 mg)) is recorded as 59%; in assay [1] (males (best at 4 mg)), 56%. Further, the “RIGISCAN score, erotic #1, comparison in words” value in assay [2] (4 mg, Site #1) was “slightly lower”. The “Penile Measurements (Maximum Increases), LSMEAN, NEUTRAL” value in assay [2] (4 mg, b698 all sites, b704 site #1, b710 #2, b716 #3, b722 #4, listed as APO) was 8.70. The entries for the “Total RIGISCAN Score, Erotic 1” value in assay [2] (6 mg) and in assay [2] (8 mg) were 17.09 ± 1.64 and 19.84 ± 1.61, respectively. The “Penile Measurements (Maximum Increases), MEAN, NEUTRAL” value in assay [2] (6 mg, b699 all sites, b705 site #1, b711 #2, b717 #3, b723 #4, listed as APO) turned out to be 9.60. The “Total RIGISCAN Score, Neutral” value in assay [2] (8 mg, N = 41-48, **) was found to be 11.95 ± 1.37. The “Penile Measurements (Maximum increase), Mean, EROTIC #1” value in assay [2] (8 mg, all sites, site #1, #2, #4, listed as APO) is 19.84 and 15.60 and 25.00. The “RIGISCAN scores, treatment effect vs second placebo in words” value in assay [2] (4, 6, and 8 mg) was “most of the treatment effects were significant to highly significant compared to the second placebo”. Besides, the “RIGISCAN scores, treatment effect in words” value in assay [2] (4, 6, and 8 mg vs initial placebo) is on record as “significant to highly significant”. Also, in assay [2] (active doses, each of four sites, neutral and erotic sequences), the “RIGISCAN scores for penile increases in words” value is on record as “improved significantly”. Also, the “RIGISCAN reading, effective in causing erections” value in assay [2] (all doses, erotic stimulation) is reported as “greater than or equal to 15”.
